Drawing on PubChem BioAssay (NCI), this text covers TGI and GI50 for 13 molecules.

Some test systems named below: UACC-62 melanoma; UACC-257 melanoma; CAKI-1 renal; SF-295 CNS; SF-539 CNS; HT29 colon; U251 CNS; NCI-H522 lung; LOX IMVI melanoma; HOP-92 NSCLC.
What all share (assay): NCI-60 cell line screen, 48 h

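All cell lines were grown in 96-well plates and treated with compound for 48 hours. Abbreviation: GI50, concentration required for 50% inhibition of growth. The concentration for full growth arrest is given as TGI.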

On to `C[C@]12CCC3C4=C(CCC3C1CCC2=O)C(=O)[C@H]1O[C@H]1C4=O` (stereo not given in full), for which the TGI amounted to 9.34 µM in the assay on UACC-62 melanoma; 34.1 µM in the assay with UACC-257 melanoma; 4.88 µM with CAKI-1 renal; 29.8 µM with SF-295 CNS; 5.38 µM with SF-539 CNS; 3.45 µM in the assay with HT29 colon. For the same molecule, the TGI stood at 8.38 µM in the assay with U251 CNS, 3.36 µM in the assay on NCI-H522 lung, 5.18 µM with LOX IMVI melanoma and 16.8 µM with HOP-92 NSCLC.
Take `O=C(OCc1ccccc1)N1CCNCCN(C(=O)OCc2ccccc2)CCNCC1`: the TGI in the assay with UACC-62 melanoma came to 70.3 µM; in the assay with UACC-257 melanoma it was 46.3 µM; in the assay on CAKI-1 renal it was 55.1 µM; in the assay on SF-295 CNS, 64.3 µM; in the assay on SF-539 CNS it was 29.2 µM; in the assay with HT29 colon it was 42 µM. In addition, the TGI in the assay on U251 CNS was 61 µM; in the assay with NCI-H522 lung, 34.5 µM; in the assay with LOX IMVI melanoma it was 27.5 µM; with HOP-92 NSCLC, above 100 µM.
Turning to `CC1=Nc2ccccc2OC(C)=C1N=Nc1ccc2nc(C)[nH]c2c1`, the TGI in the assay with UACC-62 melanoma, in the assay with UACC-257 melanoma, with CAKI-1 renal, in the assay with SF-295 CNS, in the assay with SF-539 CNS and with HT29 colon was above 100 µM throughout. In addition, the TGI in the assay with U251 CNS, in the assay with NCI-H522 lung, in the assay on LOX IMVI melanoma and in the assay on HOP-92 NSCLC was above 100 µM throughout.
Regarding `O=C(/C=C/c1ccc2c(c1)OCO2)c1ccc(O)cc1`, the TGI is 33 µM in the assay with UACC-62 melanoma; 28.8 µM with UACC-257 melanoma; 28.7 µM with CAKI-1 renal; 32.6 µM with SF-295 CNS; 32.5 µM with SF-539 CNS; 29.8 µM in the assay on HT29 colon. Besides, the TGI with U251 CNS turned out to be 26.9 µM; with NCI-H522 lung, 6.72 µM; in the assay on LOX IMVI melanoma it was 24.8 µM; in the assay on HOP-92 NSCLC, 28.8 µM.
`CCCCOC(=O)Nc1ccc(S(=O)(=O)Nc2ccccc2Cl)cc1`: the TGI in the assay on UACC-62 melanoma was 32.7 µM; in the assay with UACC-257 melanoma, 98.4 µM; in the assay on CAKI-1 renal, 44.5 µM; with SF-295 CNS, 32.9 µM; in the assay on SF-539 CNS, 32.7 µM; with HT29 colon, 35.9 µM. The TGI in the assay on U251 CNS is 36 µM; with NCI-H522 lung it was 49.3 µM; with LOX IMVI melanoma, 34.7 µM; with HOP-92 NSCLC, 30 µM.
In the case of `Cc1ccccc1C(=N)c1ccccc1Cc1cccc2ccccc12`, the TGI was 38.6 µM with UACC-62 melanoma; above 100 µM with UACC-257 melanoma; above 100 µM in the assay on CAKI-1 renal; 62.5 µM with SF-295 CNS; 35.4 µM in the assay on SF-539 CNS; above 100 µM with HT29 colon. The TGI in the assay on U251 CNS was 33.9 µM; in the assay on NCI-H522 lung it was 34.6 µM; with LOX IMVI melanoma, 31.9 µM; in the assay with HOP-92 NSCLC, 54.8 µM.
`O=[N+]([O-])c1ccc2[nH]nc(OCc3ccccc3Cl)c2c1`: the TGI in the assay on UACC-62 melanoma was 88.8 µM; in the assay on UACC-257 melanoma, above 100 µM; with CAKI-1 renal, above 100 µM; in the assay on SF-295 CNS it was above 100 µM; in the assay with SF-539 CNS, 50.9 µM; with HT29 colon, above 100 µM. Also, the TGI with U251 CNS was above 100 µM; in the assay on NCI-H522 lung, 72.7 µM; in the assay on LOX IMVI melanoma, above 100 µM; in the assay with HOP-92 NSCLC it was 47.4 µM.
On to `O=C(/C=C/c1ccc2c(c1)OCO2)Cc1nc2ncccc2[nH]c1=O`, for which the TGI in the assay on UACC-62 melanoma, in the assay on UACC-257 melanoma, in the assay with CAKI-1 renal, in the assay on SF-295 CNS, in the assay with SF-539 CNS and in the assay with HT29 colon was above 100 µM throughout. The TGI in the assay with U251 CNS, in the assay with NCI-H522 lung, with LOX IMVI melanoma and in the assay on HOP-92 NSCLC was above 100 µM each time.
In the case of `CCOC(=O)N1CCN(Cc2cc(=O)n3ccc(C)cc3n2)CC1`, the TGI in the assay on UACC-62 melanoma, with UACC-257 melanoma, in the assay on CAKI-1 renal, in the assay on SF-295 CNS, with SF-539 CNS and in the assay on HT29 colon was above 100 µM in each case. Besides, the TGI in the assay on U251 CNS, with NCI-H522 lung, in the assay on LOX IMVI melanoma and in the assay on HOP-92 NSCLC was above 100 µM in each case.
Take `CC(=O)N(C(=O)CC(=O)N1N=C(c2ccccc2)C(N=Nc2ccccc2[N+](=O)[O-])C1=O)c1ccc(Cl)cc1` (stereo not given): the TGI with UACC-62 melanoma, in the assay with UACC-257 melanoma, in the assay with CAKI-1 renal, with SF-295 CNS, with SF-539 CNS and in the assay on HT29 colon was above 10 µM in each case. For the same molecule, the TGI in the assay on U251 CNS, in the assay on NCI-H522 lung, in the assay on LOX IMVI melanoma and in the assay with HOP-92 NSCLC was above 10 µM each time.
Turning to `c1ccc2c(c1)Cn1c-2nc2ccccc21`, the TGI in the assay on UACC-62 melanoma, with UACC-257 melanoma, with CAKI-1 renal, with SF-295 CNS, with SF-539 CNS and in the assay with HT29 colon was above 100 µM in each case. In addition, the TGI in the assay on U251 CNS, in the assay on NCI-H522 lung, in the assay with LOX IMVI melanoma and with HOP-92 NSCLC was above 100 µM in each case.
In the case of `COc1ccc(CN2C(=O)/C(=C\c3cc(OC)c(OC)c(OC)c3)c3ccccc32)cc1`, the GI50 is 1.6 µM in the assay with UACC-62 melanoma; 2.15 µM in the assay on UACC-257 melanoma; 2.63 µM in the assay with CAKI-1 renal; 3.79 µM in the assay on SF-295 CNS; 2.17 µM in the assay on SF-539 CNS; 1.68 µM in the assay with HT29 colon. Besides, the GI50 in the assay with U251 CNS is 1.56 µM; with NCI-H522 lung, 1.58 µM; in the assay on LOX IMVI melanoma it was 1.76 µM; with HOP-92 NSCLC, 1.96 µM. For the same molecule, the TGI with UACC-62 melanoma turned out to be 3.51 µM; in the assay on UACC-257 melanoma it was 6.67 µM; in the assay with CAKI-1 renal, 20.3 µM; in the assay on SF-295 CNS it was 35.8 µM; in the assay on SF-539 CNS, 4.33 µM; with HT29 colon it was 3.79 µM. The TGI in the assay on U251 CNS was 2.98 µM; in the assay on NCI-H522 lung, 3.57 µM; in the assay on LOX IMVI melanoma, 3.3 µM; in the assay with HOP-92 NSCLC, 7.3 µM.
`Cc1oc2c(cc(O)c3cc(O)ccc32)c2cccc1-2`: the TGI in the assay on UACC-62 melanoma, in the assay with UACC-257 melanoma, in the assay on CAKI-1 renal, in the assay on SF-295 CNS, in the assay on SF-539 CNS and with HT29 colon was above 100 µM each time. Also, the TGI with U251 CNS, with NCI-H522 lung, in the assay on LOX IMVI melanoma and in the assay on HOP-92 NSCLC was above 100 µM each time.
